In patent US10829473B2, “Modulators of the cystic fibrosis transmembrane conductance regulator protein and methods of use” (AbbVie Overseas S.Á.R.L., priority 2017, dated 2020):
Like-named read-outs stand apart in the source and are kept apart here. Marks after values point to notes of the source that are not given here.

Molecular target: T1, F508delCFTR (Homo sapiens, UniProt P13569, DEL508-508)
T1 construct: expressed in transfected cells; host or cells: CFBE41o- human lung derived epithelial cells (CFBE41o-F508delCFTR-HRP), doxycycline-inducible
T1 sequence (P13569 with tags, fused parts or gaps DEL508-508): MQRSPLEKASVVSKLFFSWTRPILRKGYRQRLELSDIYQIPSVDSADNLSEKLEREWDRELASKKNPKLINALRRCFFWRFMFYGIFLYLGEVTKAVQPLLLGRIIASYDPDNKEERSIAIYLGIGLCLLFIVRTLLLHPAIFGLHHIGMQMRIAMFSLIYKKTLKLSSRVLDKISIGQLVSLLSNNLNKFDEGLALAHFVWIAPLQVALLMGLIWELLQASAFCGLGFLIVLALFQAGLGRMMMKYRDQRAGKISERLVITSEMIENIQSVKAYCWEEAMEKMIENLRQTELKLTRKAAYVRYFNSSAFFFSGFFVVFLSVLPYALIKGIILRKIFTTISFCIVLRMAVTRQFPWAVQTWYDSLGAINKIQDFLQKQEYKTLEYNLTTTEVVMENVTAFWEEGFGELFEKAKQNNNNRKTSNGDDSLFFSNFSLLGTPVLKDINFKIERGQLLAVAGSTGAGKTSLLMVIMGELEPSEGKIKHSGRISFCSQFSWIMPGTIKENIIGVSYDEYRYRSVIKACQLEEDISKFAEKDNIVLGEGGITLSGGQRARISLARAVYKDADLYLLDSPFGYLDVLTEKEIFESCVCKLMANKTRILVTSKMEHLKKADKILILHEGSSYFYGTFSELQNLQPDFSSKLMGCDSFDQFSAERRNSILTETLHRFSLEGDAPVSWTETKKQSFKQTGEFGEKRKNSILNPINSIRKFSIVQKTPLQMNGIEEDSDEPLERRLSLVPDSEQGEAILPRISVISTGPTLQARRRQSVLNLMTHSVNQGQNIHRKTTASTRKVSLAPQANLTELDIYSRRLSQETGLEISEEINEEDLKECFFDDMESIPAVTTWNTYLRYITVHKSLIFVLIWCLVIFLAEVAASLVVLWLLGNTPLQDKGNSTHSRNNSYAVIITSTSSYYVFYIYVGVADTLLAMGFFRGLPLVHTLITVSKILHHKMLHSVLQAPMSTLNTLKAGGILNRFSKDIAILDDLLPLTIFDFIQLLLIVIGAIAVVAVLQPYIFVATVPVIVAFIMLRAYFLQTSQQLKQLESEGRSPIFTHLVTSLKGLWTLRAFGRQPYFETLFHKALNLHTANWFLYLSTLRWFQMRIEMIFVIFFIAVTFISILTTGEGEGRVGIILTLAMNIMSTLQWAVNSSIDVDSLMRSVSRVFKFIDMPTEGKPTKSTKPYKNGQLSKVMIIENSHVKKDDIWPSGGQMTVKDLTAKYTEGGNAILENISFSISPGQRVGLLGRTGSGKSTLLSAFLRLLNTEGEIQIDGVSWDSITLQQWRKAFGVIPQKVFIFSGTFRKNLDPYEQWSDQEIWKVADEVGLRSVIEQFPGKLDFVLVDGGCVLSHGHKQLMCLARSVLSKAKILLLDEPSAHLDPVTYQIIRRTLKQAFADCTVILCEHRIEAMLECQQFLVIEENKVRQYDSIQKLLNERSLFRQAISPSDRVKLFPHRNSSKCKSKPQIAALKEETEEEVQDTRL
Test: Cell Surface Expression-Horse Radish Peroxidase (CSE-HRP) Assay;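 for EC50 (with co-corrector): co-corrector chromenyl benzoic acid corrector at 2 or 3 µM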;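 for Maximum % activity (without co-corrector): % of on-plate positive control chromenyl benzoic acid corrector at 2 or 3 µM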
Type: cell-based
Conditions: for Maximum % activity (with co-corrector) / Emax: maximum at any tested concentration; for Emax: read-out: Maximum % activity (without co-corrector)
How it was run: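 Corrector compounds were given as 8-point 3-fold series from 20 or 30 μM, with or without a 2 μM co-corrector, for 18-24 h at 33 °C. Surface HRP was read by luminol luminescence as % of positive control; variable-Hill-slope sigmoidal fitting gave EC50 from triplicate plates.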

[1] = test compound with co-corrector
[2] = test compound with co-corrector, read-out: EC50 (with co-corrector)
[3] = test compound without co-corrector
[4] = test compound without co-corrector, read-out: EC50 (without co-corrector)
[5] = test compound alone, without co-corrector, read-out: EC50 (without co-corrector)
[6] = with co-corrector, read-out: EC50 (with co-corrector)

Row | Structure (SMILES) | Maximum % activity (with co-corrector) [1] | EC50 [2] | Emax [3] | EC50 [4] | EC50 [5] | Maximum % activity (with co-corrector) (with co-corrector) | EC50 [6] | Emax (without co-corrector) | EC50 (without co-corrector) [3]
1 | COc1nc(C(F)(F)F)ccc1C1(C(=O)NS(=O)(=O)c2cccc3c2CCCN3)CC1 [GII-12, 1-[2-methoxy-6-(trifluoromethyl)pyridin-3-yl]-N-(1,2,3,4-tetrahydroquinoline-5-sulfonyl)cyclopropane-1-carboxamide] | +++ (≥350) | 3 to 10 µM | 50 to 150% | 3 to 10 µM | – | – | – | – | –
2 | O=C(OCc1ccccc1)N1CCC(S(=O)(=O)NC(=O)C2(c3ccc(Cl)c(Cl)c3)CC2)CC1 [Example III-70, benzyl 4-{[1-(3,4-dichlorophenyl)cyclopropane-1-carbonyl]sulfamoyl}piperidine-1-carboxylate] | – | – | – | – | > 10 µM | + (<150) | > 10 µM | < 50% | –
3 | COCCOc1ncc(C2CCC2)cc1C1(C(=O)NS(=O)(=O)c2cccc3[nH]ccc23)CC1 [Example GI-99, 1-[5-cyclobutyl-2-(2-methoxyethoxy)pyridin-3-yl]-N-(1H-indole-4-sulfonyl)cyclopropane-1-carboxamide] | +++ (≥350) | < 3 µM | > 150% | < 3 µM | – | – | – | – | –
4 | Cc1cnc(OCC2CC2)c(C2(C(=O)NS(=O)(=O)c3cccc4[nH]ccc34)CC2)c1 [Example GI-97, 1-[2-(cyclopropylmethoxy)-5-methylpyridin-3-yl]-N-(1H-indole-4-sulfonyl)cyclopropane-1-carboxamide] | +++ (≥350) | < 3 µM | > 150% | < 3 µM | – | – | – | – | –
5 | O=C(NS(=O)(=O)CCCCl)C1(c2ccc(Cl)cc2Cl)CC1 [Example III-108, N-(3-chloropropane-1-sulfonyl)-1-(2,4-dichlorophenyl)cyclopropane-1-carboxamide] | – | – | – | – | > 10 µM | ++ (≥150 and <350) | 3 to 10 µM | < 50% | –
6 | CC(C)Oc1ncc(C2CC2)cc1C1(C(=O)NS(=O)(=O)c2cccc3[nH]ccc23)CC1 [Example GI-61, 1-{5-cyclopropyl-2-[(propan-2-yl)oxy]pyridin-3-yl}-N-(1H-indole-4-sulfonyl)cyclopropane-1-carboxamide] | +++ (≥350) | < 3 µM | > 150% | < 3 µM | – | – | – | – | –
7 | COc1ccc(C)c(C)c1C1(C(=O)NS(=O)(=O)c2cccc3c2CCCN3)CC1 [II-36] | – | – | – | – | < 3 µM | +++ (≥350) | < 3 µM | > 150% | –
8 | O=C(NS(=O)(=O)C1CC1)C1(c2ccc(Cl)cc2Cl)CC1 [Example III-28, N-(cyclopropanesulfonyl)-1-(2,4-dichlorophenyl)cyclopropane-1-carboxamide] | – | – | – | – | > 10 µM | + (<150) | 3 to 10 µM | < 50% | –
9 | Cc1ccc(S(=O)(=O)NC(=O)C2(c3cccc(Cl)c3)CC2)nc1 [Example III-84, 1-(3-chlorophenyl)-N-(5-methylpyridine-2-sulfonyl)cyclopropane-1-carboxamide] | – | – | – | – | > 10 µM | + (<150) | > 10 µM | < 50% | –
10 | Cc1ccc2c(S(=O)(=O)NC(=O)C3(c4cc(Cl)ccc4OC(F)F)CC3)cccc2n1 [II-102] | – | – | – | – | 3 to 10 µM | +++ (≥350) | < 3 µM | > 150% | –
11 | COCCOc1ncc(OC)cc1C1(C(=O)NS(=O)(=O)c2cccc3[nH]ccc23)CC1 [GII-43, N-(1H-indole-4-siilfonyl)-1-[5-methoxy-2-(2-methoxyethoxy)pyridin-3-yl]cyclopropane-1-carboxamide] | ++ (≥150 and <350) | 3 to 10 µM | 50 to 150% | – | – | – | – | – | ++^a
12 | COc1cc(C2(C(=O)NS(=O)(=O)c3cccc4nc(C)ccc34)CC2)c(OCC(C)C)cn1 [Example GI-20, 1-[2-methoxy-5-(2-methylpropoxy)pyridin-4-yl]-N-(2-methylquinoline-5-sulfonyl)cyclopropane-1-carboxamide] | – | – | – | – | < 3 µM | +++ (≥350) | < 3 µM | > 150% | –
13 | CCn1nc(C)cc1C1(C(=O)NS(=O)(=O)c2cccc3ccccc23)CC1 [II-4] | – | – | – | – | 3 to 10 µM | +++ (≥350) | 3 to 10 µM | 50 to 150% | –
14 | CCc1ccc(OC)c(C2(C(=O)NS(=O)(=O)c3cccc4nc(N)ccc34)CC2)c1 [II-71] | – | – | – | – | < 3 µM | +++ (≥350) | < 3 µM | > 150% | –
15 | COc1ccc(C2CCC2)c(C2(C(=O)NS(=O)(=O)c3cccc4ncccc34)CC2)c1 [II-46] | – | – | – | – | < 3 µM | +++ (≥350) | < 3 µM | > 150% | –
16 | COc1cc(C2CCC2)cc(OC)c1C1(C(=O)NS(=O)(=O)c2cccc3[nH]ccc23)CC1 [Example I-86, 1-(4-cyclobutyl-2,6-dimethoxyphenyl)-N-(1H-indole-4-sulfonyl)cyclopropane-1-carboxamide] | – | – | – | – | < 3 µM | +++ (≥350) | < 3 µM | > 150% | –
17 | COC(=O)c1ccc(S(=O)(=O)NC(=O)C2(c3ccc(Cl)cc3Cl)CC2)o1 [Example III-62, methyl 5-{[1-(2,4-dichlorophenyl)cyclopropane-1-carbonyl]ulfamoyl}furan-2-carboxylate] | – | – | – | – | > 10 µM | + (<150) | > 10 µM | < 50% | –
18 | Cc1ccc(OC2COC2)c(C2(C(=O)NS(=O)(=O)c3cccc4ncccc34)CC2)c1 [Example I-93, 1-{5-methyl-2-[(oxetan-3-yl)oxy]phenyl}-N-(quinoline-5-sulfonyl)cyclopropane-1-carboxamide] | – | – | – | – | 3 to 10 µM | +++ (≥350) | < 3 µM | > 150% | –
19 | O=C(NS(=O)(=O)Cc1ccccc1)C1(c2ccccc2F)CC1 [Example III-35, 1-(2-fluorophenyl)-N-(phenylmethanesulfonyl)cyclopropane-1-carboxamide] | – | – | – | – | > 10 µM | ++ (≥150 and <350) | > 10 µM | < 50% | –
20 | COc1cccc(C)c1C1(C(=O)NS(=O)(=O)c2cccc3c2CCCN3)CC1 [II-53] | – | – | – | – | 3 to 10 µM | +++ (≥350) | < 3 µM | > 150% | –
21 | COc1ncc(C(F)(F)F)cc1C1(C(=O)NS(=O)(=O)c2cccc3ccn(C)c23)CC1 [II-17] | – | – | – | – | < 3 µM | +++ (≥350) | < 3 µM | > 150% | –
22 | COc1ccc(C(C)C)cc1C1(C(=O)NS(=O)(=O)c2cccc3c2CCCN3)CCC1 [II-20] | – | – | – | – | 3 to 10 µM | +++ (≥350) | < 3 µM | > 150% | –
23 | O=C(NS(=O)(=O)c1cccc(Cl)c1)C1(c2ccc(Cl)cc2Cl)CC1 [Example III-26, N-(3-chlorobenzene-1-sulfonyl)-1-(2,4-dichlorophenyl)cyclopropane-1-carboxamide] | – | – | – | – | 3 to 10 µM | ++ (≥150 and <350) | 3 to 10 µM | < 50% | –
24 | CCc1cccc(OC)c1C1(C(=O)NS(=O)(=O)c2cccc3[nH]ncc23)CC1 [Example III-132, 1-(2-ethyl-6-methoxyphenyl)-N-(lH-indazole-4-sulfonyl)cyclopropane-1-carboxamide] | – | – | – | – | < 3 µM | +++ (≥350) | < 3 µM | > 150% | –
25 | CO[C@@H](C)COc1ccc(C)cc1C1(C(=O)NS(=O)(=O)c2cccc3nc(C)ccc23)CC1 [Example I-114, 1-{2-[(2S)-2-methoxypropoxy]-5-methylphenyl}-N-(2-methylquinoline-5-sulfonyl)cyclopropane-1-carboxamide] | – | – | – | – | < 3 µM | +++ (≥350) | < 3 µM | > 150% | –
26 | O=C(NS(=O)(=O)c1cccc2[nH]ccc12)C1(c2cc(C3CCC3)cnc2N2CCCC2)CC1 [Example GI-30, 1-[5-cyclobutyl-2-(pyrrolidin-1-yl)pyridin-3-yl]-N-(1H-indole-4-sulfonyl)cyclopropane-1-carboxamide] | +++ (≥350) | < 3 µM | > 150% | < 3 µM | – | – | – | – | –
27 | COc1ccc(C(C)(C)C)cc1C1(C(=O)NS(=O)(=O)c2cccc3ncccc23)CC1 [Example I-34, 1-(5-tert-butyl-2-methoxyphenyl)-N-(quinoline-5-sulfonyl)cyclopropane-1-carboxamide] | – | – | – | – | < 3 µM | +++ (≥350) | < 3 µM | > 150% | –
28 | Cc1ccccc1S(=O)(=O)NC(=O)C1(c2ccc3c(c2)OCO3)CC1 [Example III-86, 1-(2H-1,3-benzodioxol-5-yl)-N-(2-methylbenzene-1-sulfonyl)cyclopropane-1-carboxamide] | – | – | – | – | 3 to 10 µM | ++ (≥150 and <350) | 3 to 10 µM | < 50% | –
29 | COc1ccc(OC(C)C)cc1C1(C(=O)NS(=O)(=O)c2cccc3ncccc23)CC1 [Example I-14, 1-{2-methoxy-5-[(propan-2-yl)oxy]phenyl}-N-(quinoline-5-sulfonyl)cyclopropane-1-carboxamide] | – | – | – | – | < 3 µM | +++ (≥350) | < 3 µM | > 150% | –
